Results from paper PMC12823440, “Inhibitors supercharge kinase turnover through native proteolytic circuits” (Nature, 2025).

Experiments:
Test in all cases: biochemical
[1] = molecular target: ABL2 (Homo sapiens, UniProt P42684)
[2] = molecular target: ABL1 (Homo sapiens, UniProt P00519)
[3] = molecular target: BTK (Homo sapiens, UniProt Q06187)
[4] = molecular target: T1, MAP4K3 (Homo sapiens, UniProt Q8IVH8)
T1 sequence (Q8IVH8 1-894): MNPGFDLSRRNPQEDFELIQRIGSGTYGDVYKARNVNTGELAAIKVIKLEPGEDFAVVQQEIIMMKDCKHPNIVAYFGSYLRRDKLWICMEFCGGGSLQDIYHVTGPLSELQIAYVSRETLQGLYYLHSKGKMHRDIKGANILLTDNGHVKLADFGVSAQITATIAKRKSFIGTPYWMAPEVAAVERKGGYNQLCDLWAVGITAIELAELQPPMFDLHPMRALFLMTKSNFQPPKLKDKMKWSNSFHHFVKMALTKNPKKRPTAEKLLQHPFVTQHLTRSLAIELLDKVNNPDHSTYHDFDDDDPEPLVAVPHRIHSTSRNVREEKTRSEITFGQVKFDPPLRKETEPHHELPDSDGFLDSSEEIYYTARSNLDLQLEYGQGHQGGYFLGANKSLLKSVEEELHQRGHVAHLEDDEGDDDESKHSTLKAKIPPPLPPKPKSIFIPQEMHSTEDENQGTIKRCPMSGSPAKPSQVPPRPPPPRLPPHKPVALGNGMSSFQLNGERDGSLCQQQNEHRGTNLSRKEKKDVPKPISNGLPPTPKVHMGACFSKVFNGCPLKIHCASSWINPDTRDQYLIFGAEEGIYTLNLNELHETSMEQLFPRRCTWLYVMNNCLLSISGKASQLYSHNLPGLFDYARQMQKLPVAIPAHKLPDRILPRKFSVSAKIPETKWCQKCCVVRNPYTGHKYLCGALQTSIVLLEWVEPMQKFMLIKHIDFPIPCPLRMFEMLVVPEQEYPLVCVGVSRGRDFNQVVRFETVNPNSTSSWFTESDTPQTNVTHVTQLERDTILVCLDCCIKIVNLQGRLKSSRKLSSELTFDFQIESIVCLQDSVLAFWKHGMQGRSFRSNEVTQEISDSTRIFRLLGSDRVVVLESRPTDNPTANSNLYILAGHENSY

Sequence of ABL1 (P00519 whole entry): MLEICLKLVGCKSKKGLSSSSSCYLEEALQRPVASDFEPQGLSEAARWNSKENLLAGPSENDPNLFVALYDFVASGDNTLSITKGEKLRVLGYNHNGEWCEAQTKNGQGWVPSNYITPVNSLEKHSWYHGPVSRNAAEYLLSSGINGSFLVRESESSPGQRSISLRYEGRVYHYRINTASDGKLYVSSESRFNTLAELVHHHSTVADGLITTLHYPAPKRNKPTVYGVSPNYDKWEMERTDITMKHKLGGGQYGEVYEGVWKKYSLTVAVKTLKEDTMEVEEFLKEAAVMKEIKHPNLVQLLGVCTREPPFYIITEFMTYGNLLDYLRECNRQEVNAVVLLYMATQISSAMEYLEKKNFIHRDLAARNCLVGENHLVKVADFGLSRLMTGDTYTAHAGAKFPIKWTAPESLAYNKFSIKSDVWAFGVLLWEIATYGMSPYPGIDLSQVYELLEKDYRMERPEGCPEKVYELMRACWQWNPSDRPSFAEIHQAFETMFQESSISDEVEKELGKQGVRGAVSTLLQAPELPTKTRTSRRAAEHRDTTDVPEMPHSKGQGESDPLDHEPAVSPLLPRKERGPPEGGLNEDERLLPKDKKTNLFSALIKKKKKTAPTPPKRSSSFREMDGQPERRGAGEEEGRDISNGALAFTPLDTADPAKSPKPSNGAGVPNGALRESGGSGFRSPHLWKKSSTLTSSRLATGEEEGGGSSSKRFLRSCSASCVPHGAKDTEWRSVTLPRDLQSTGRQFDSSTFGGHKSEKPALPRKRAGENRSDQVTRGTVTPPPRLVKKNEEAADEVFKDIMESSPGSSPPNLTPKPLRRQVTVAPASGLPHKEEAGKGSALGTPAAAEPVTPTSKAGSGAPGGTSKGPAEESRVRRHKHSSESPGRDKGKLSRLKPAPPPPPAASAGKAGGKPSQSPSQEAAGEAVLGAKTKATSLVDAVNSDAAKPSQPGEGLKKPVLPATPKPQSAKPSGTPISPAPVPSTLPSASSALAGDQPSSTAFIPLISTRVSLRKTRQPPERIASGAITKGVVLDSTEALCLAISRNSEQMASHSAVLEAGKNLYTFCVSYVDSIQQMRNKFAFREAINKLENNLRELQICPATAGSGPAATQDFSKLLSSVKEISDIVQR
Sequence of ABL2 (P42684 whole entry): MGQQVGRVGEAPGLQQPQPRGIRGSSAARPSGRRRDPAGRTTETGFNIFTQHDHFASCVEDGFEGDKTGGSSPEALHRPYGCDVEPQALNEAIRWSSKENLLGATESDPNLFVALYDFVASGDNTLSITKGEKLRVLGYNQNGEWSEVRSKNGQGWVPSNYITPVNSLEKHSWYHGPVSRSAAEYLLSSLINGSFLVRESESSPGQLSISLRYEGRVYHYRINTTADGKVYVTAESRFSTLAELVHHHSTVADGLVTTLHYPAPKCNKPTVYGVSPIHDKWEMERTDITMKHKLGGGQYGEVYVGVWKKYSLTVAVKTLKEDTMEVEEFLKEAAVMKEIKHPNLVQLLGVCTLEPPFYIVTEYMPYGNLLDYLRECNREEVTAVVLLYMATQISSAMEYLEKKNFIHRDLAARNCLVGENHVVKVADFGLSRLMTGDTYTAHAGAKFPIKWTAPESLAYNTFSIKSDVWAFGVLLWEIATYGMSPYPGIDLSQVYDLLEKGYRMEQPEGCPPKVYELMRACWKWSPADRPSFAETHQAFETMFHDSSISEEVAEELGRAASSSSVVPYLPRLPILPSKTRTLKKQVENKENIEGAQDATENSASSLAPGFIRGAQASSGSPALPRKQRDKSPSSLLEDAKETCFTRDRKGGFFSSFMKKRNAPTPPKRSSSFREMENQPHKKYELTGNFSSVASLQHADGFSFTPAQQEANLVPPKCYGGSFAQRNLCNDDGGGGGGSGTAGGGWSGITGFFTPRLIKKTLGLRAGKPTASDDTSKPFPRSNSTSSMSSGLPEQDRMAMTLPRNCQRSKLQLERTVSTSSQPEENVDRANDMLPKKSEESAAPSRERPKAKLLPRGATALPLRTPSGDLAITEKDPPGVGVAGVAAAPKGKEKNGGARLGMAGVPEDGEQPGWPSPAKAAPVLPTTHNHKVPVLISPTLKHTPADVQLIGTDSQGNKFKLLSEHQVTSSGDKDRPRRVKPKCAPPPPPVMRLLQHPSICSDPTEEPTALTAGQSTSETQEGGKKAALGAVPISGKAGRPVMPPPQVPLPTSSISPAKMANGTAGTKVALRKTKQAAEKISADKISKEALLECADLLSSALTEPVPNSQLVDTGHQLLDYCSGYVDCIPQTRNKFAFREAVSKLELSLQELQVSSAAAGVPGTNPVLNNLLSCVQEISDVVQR
Sequence of BTK (Q06187 whole entry): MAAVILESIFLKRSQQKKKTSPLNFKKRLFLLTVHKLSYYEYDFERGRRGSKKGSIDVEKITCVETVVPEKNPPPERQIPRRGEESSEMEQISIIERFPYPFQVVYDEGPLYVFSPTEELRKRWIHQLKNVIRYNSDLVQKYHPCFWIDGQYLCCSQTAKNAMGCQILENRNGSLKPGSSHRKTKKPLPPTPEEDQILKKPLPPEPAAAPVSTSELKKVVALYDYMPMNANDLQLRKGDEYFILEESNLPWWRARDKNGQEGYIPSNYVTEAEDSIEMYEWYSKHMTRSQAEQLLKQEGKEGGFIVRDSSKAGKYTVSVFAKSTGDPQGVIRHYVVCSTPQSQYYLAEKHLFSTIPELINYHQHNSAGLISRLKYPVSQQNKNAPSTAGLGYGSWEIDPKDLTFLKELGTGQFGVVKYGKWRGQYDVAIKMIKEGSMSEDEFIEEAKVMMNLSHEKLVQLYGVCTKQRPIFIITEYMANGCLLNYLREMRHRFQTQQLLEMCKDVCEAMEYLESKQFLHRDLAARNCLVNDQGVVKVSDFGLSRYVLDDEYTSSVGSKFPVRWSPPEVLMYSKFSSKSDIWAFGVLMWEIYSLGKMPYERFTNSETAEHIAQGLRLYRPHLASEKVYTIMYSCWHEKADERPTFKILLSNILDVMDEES

## COc1ccc2c(C(=O)Nc3ccc(NC(=O)c4nn(C5CCN(C(=O)CC(C)(C)C#N)CC5)c5ccc(F)cc45)cc3Cl)cnn2c1 [SI-3]
[1]
  Kd: 40.2 nM
[2]
  Kd: 353 nM
[3]
  Kd: 3080 nM
[4]
  Kd: 9700 nM
